Tests used:
GLP = biological target: T1, GLP (Homo sapiens, UniProt Q9H9B1); assay: Radioligand binding assay (3H-SAM), Reaction Biology; format: biochemical
T1 construct: purchased BPS Bioscience (contract panel)
T1 sequence (Q9H9B1 1-1298): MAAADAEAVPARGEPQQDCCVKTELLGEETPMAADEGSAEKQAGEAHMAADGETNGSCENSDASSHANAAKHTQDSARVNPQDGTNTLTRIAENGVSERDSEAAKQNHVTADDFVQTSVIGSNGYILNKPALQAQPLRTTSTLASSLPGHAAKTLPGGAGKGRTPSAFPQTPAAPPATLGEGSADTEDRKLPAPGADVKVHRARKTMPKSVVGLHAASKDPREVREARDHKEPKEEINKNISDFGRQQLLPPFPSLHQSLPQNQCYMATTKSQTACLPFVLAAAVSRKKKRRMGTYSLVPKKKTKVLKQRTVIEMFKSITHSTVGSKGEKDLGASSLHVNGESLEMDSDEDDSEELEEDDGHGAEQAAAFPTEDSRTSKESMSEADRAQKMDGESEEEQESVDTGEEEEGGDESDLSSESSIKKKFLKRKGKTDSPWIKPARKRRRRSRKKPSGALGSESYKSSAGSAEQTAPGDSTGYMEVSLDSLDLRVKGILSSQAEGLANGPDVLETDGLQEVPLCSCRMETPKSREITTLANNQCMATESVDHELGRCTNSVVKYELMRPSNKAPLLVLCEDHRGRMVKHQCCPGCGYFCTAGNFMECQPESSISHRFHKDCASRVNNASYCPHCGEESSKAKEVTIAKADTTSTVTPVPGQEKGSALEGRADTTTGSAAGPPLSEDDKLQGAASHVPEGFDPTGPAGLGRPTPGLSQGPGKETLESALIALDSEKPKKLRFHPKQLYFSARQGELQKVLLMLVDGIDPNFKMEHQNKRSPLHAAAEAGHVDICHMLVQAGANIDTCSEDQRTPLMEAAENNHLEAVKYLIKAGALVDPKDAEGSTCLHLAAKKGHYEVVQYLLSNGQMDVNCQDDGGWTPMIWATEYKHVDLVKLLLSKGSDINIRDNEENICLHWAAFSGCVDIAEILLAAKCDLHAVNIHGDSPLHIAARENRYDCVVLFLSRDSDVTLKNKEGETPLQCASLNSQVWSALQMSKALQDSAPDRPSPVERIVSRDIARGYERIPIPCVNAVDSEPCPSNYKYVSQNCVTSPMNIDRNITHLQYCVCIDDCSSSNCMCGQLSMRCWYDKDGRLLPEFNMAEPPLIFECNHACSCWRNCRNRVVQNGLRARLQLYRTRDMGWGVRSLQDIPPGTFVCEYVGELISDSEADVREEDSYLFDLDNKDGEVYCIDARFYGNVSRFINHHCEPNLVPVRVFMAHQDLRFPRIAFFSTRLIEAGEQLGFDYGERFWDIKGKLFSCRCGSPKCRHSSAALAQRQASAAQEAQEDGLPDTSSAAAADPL
Protocol: The radioligand binding assay against G9a, DNMT1 and GLP was performed by Reaction Biology Corporation (http://www.reactionbiology.com).

PRMT3 = biological target: T2, PRMT3 (Homo sapiens, UniProt O60678); assay: Epigenetics selectivity panel (BPS Bioscience); format: biochemical
T2 construct: purchased DiscoverX KINOMEscan (kinases); BPS Bioscience (epigenetic targets)

ATAD2B = biological target: T3, ATAD2B (Homo sapiens, UniProt Q9ULI0); assay: Epigenetics selectivity panel (BPS Bioscience); format: binding
T3 construct: purchased DiscoverX KINOMEscan (kinases); BPS Bioscience (epigenetic targets)

JMJD1A = biological target: T4, JMJD1A (Homo sapiens, UniProt Q9Y4C1); assay: Epigenetics selectivity panel (BPS Bioscience); format: biochemical
T4 construct: purchased DiscoverX KINOMEscan (kinases); BPS Bioscience (epigenetic targets)

cytochrome P450 1A2 = biological target: T5, cytochrome P450 1A2 (Homo sapiens, UniProt P05177); assay: CYP inhibition in human liver microsomes; format: in vitro ADME; settings: 10 µM
T5 construct: tissue BD Gentest; host or cells: human liver microsomes
Protocol: Positive control was obtained in the presence of the vehicle of the compounds. Negative control was obtained in the absence of HDAC enzyme activity. A best fit curve was fitted using GraphPad Prism 5 to derive the half maximal inhibitory concentration (IC50) from this curve. Results are the average of two […]
3A4) was evaluated in human liver microsomes at Wuxi (http://www.wuxi.com/). Test compounds (10 µM) and the corresponding substrates for each P450 isoform (20 µL) were incubated with 140 µL liver […]
reaction was terminated by adding 400 µL cold stop solution (200 ng/mL tolbutamide in ACN) and samples were centrifuged at 4000 rpm for 20 minutes. Supernatants were analyzed by LC-MS/MS (Shimadzu LC 20-AD - API 4000), using peak area ratio of analyte/internal standard. Test compounds and positive controls were tested in duplicates. The percentage of inhibition was calculated as the ratio of substrate metabolite detected in treated and non-treated wells.
This study was conducted by Equilibrium Dialysis at Wuxi (http://www.wuxi.com/). HT-Dialysis plate (Model HTD 96 b, Cat# 1006) and the dialysis membrane (molecular weight cut off 12-14 kDa, Cat# 1101) were purchased from HT Dialysis LLC (Gales Ferry, CT). Human plasma and CD-1 mouse plasma from Bioreclamation were thawed prior to experiment and the pH was adjusted at 7.4. […]
Results are the average of three replicates. […]

PEER = assay: Cell proliferation assay (MTS); format: cell-based; settings: Homo sapiens; ALL, 48 h
SEM cells = assay: Cell proliferation assay (MTS); format: cell-based; settings: Homo sapiens; ALL, 48 h
HL-60 = assay: Cell proliferation assay (MTS); format: cell-based; settings: Homo sapiens, AML, 48 h
NOMO-1 = assay: Cell proliferation assay (MTS); format: cell-based; settings: Homo sapiens, AML, 48 h
HCT-116 = assay: Cell proliferation assay (MTS); format: cell-based; settings: Homo sapiens, Colorectal
H358 = assay: Cell proliferation assay (MTS); format: cell-based; settings: Homo sapiens, NCI-H358; NSCLC
N417 = assay: Cell proliferation assay (MTS); format: cell-based; settings: Homo sapiens, SCLC

T3 sequence (Q9ULI0 whole entry): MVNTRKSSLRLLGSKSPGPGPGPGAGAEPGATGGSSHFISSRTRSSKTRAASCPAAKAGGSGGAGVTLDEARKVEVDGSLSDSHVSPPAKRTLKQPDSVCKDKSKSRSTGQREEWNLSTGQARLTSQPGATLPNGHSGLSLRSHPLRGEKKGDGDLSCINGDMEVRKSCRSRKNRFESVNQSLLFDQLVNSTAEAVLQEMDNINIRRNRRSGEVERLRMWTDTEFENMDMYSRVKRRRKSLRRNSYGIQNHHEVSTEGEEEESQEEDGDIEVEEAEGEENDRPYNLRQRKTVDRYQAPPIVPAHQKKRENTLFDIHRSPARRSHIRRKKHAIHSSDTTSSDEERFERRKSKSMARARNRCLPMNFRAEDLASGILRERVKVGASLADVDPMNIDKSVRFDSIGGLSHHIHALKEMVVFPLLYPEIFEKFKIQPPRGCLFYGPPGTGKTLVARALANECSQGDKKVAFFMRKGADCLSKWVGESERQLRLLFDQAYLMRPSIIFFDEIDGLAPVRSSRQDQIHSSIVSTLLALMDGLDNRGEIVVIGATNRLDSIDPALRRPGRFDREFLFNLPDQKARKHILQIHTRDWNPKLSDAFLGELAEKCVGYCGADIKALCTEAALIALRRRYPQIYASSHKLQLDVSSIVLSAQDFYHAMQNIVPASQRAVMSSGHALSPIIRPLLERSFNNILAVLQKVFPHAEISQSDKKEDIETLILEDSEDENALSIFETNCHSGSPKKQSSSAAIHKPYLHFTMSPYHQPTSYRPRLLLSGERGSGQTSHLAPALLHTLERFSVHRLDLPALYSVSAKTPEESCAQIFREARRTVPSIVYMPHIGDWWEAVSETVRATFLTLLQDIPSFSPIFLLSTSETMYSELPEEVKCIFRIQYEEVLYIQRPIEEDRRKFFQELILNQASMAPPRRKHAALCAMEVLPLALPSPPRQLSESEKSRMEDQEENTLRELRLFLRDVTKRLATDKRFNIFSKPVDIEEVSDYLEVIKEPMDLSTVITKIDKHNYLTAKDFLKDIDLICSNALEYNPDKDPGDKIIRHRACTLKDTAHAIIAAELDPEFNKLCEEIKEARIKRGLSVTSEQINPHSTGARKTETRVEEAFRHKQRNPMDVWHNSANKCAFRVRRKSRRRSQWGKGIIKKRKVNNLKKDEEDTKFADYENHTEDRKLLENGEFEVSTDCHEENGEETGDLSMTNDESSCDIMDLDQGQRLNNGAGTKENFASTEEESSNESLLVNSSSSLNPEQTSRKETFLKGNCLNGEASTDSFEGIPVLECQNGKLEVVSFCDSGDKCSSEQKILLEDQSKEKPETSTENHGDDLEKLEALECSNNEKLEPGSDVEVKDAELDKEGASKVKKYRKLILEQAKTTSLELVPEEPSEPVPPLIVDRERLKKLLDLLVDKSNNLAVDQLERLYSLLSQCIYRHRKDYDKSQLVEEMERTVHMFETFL
T4 sequence (Q9Y4C1 whole entry): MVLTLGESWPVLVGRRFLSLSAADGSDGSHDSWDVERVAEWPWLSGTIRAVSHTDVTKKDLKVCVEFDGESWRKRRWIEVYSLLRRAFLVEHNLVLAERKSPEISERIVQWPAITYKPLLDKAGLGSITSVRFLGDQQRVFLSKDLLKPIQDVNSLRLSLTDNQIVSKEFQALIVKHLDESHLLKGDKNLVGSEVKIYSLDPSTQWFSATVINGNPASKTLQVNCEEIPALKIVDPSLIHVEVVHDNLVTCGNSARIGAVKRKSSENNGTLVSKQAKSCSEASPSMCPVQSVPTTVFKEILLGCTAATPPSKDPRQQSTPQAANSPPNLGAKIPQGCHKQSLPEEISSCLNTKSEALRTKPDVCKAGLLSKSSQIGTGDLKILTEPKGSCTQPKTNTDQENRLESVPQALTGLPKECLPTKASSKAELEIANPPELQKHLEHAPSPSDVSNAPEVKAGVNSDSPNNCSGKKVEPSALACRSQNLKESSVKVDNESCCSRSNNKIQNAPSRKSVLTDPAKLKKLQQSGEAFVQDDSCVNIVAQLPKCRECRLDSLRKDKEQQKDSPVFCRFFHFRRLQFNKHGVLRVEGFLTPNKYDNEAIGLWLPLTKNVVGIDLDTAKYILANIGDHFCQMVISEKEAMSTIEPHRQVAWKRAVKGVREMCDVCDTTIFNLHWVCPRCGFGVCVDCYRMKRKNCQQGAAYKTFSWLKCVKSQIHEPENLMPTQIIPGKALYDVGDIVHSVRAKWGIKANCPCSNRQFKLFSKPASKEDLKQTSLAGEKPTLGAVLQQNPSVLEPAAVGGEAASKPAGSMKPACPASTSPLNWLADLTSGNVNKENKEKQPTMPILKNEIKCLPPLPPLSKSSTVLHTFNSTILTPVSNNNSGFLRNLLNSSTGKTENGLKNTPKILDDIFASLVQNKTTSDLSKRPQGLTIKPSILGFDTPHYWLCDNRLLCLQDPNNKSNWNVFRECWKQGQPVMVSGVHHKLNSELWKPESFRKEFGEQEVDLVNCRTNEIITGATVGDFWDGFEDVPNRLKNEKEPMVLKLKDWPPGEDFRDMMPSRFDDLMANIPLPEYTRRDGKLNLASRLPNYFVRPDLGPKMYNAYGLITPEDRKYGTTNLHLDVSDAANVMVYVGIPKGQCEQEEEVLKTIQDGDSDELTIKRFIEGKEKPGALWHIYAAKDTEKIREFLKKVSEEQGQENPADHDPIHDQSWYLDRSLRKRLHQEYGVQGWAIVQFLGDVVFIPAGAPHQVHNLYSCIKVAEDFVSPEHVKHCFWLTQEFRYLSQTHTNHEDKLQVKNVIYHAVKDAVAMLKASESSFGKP
T5 sequence (P05177 whole entry): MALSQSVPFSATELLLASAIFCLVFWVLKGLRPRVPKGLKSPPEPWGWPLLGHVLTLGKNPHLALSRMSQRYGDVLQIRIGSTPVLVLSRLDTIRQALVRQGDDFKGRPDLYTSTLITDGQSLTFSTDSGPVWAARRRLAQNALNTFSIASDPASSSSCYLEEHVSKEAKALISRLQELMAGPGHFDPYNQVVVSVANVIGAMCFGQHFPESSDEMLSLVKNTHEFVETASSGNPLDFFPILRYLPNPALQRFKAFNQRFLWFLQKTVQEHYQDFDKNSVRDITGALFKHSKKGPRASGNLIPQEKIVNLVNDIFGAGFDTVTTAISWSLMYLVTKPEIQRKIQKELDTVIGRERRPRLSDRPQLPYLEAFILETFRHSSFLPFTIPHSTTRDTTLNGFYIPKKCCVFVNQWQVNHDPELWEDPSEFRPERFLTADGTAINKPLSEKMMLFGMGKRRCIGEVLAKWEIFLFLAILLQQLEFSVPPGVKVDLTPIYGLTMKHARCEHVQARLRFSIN
T2 sequence (O60678 whole entry): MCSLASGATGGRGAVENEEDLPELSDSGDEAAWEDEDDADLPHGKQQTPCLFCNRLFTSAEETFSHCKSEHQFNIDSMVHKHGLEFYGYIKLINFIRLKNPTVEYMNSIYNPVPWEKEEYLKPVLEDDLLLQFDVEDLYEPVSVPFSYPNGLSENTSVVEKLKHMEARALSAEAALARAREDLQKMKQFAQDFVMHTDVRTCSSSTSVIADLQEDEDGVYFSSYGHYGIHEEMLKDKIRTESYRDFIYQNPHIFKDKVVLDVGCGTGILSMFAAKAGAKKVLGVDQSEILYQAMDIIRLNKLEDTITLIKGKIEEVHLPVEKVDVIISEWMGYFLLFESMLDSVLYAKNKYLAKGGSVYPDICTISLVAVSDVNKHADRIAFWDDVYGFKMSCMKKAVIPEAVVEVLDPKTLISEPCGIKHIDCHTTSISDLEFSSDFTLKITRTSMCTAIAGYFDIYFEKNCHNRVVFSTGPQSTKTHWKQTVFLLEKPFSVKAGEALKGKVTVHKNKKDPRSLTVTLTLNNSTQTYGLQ

SMILES	IC50 (GLP) [nM]	inhibition at 10 µM (PRMT3) [%]	inhibition at 10 µM (ATAD2B) [%]	inhibition at 10 µM (JMJD1A) [%]	P450s Inhibition: 1A2 (cytochrome P450 1A2) [%]	GI50 (PEER) [nM]	GI50 (SEM cells) [nM]	GI50 (HL-60) [nM]	GI50 (NOMO-1) [nM]	GI50 (HCT-116) [nM]	GI50 (H358) [nM]	GI50 (N417) [nM]
COc1cc2c(NCC3CCN(C)CC3)cc(-c3ccc(C)o3)nc2cc1OCCCN1CCCC1 [CM-579, 6-methoxy-2-(5-methyl-2-furyl)-N-[(1-methyl-4-piperidyl)methyl]-7-(3-pyrrolidin-1-ylpropoxy)quinolin-4-amine]	67	5	0	6	< 10	> 10000	> 10000	> 10000	> 10000	176	197	409
COc1cc2c(NC3CCN(C)CC3)cc(-c3ccc(C)o3)nc2cc1OCCCN1CCCC1 [CM-272, 6-methoxy-2-(5-methyl-2-furyl)-N-(1-methyl-4-piperidyl)-7-(3-pyrrolidin-1-ylpropoxy)quinolin-4-amine]	7	7	0	8	< 10	930	3320	2900	3560	602	644	1320

Reference: paper PMC5458547, “Discovery of first-in-class reversible dual small molecule inhibitors against G9a and DNMTs in hematological malignancies” (Nature Communications, 2017)
